Our source for the IC50, Activity and inhibition values is ChEMBL document CHEMBL5150024, “Design and synthesis of TPP+-Mitomycin C conjugate with reduced toxicity” (Bioorg Med Chem Lett, 2022).

The structures appear in SMILES notation. The source made the active and inactive calls. The calls are words filed in the database; no cut-off is given here.

Data set [1] relates to A-375. Briefly: Antiproliferative activity against human A-375 cells assessed as inhibition of cell growth incubated for 48 hrs by MTT assay. It counts as functional, cell-based. The following applies: A-375, 48 h. (Tetrazolium dyes change colour on reduction, which living cells bring about.)
For data set [2], the system named is A549. As to the kind of experiment: Antiproliferative activity against human A549 cells assessed as inhibition of cell growth incubated for 48 hrs by MTT assay. The following applies: A549, 48 h. It counts as functional, cell-based.
Data set [3] deals with MDA-MB-231. As to the kind of experiment: Antiproliferative activity against human MDA-MB-231 cells assessed as inhibition of cell growth incubated for 48 hrs by MTT assay. In kind it is functional, cell-based. The conditions noted are these: MDA-MB-231, 48 h.
In data set [4] the test system is MCF7. Briefly: Antiproliferative activity against human MCF7 cells assessed as inhibition of cell growth incubated for 48 hrs by MTT assay. In kind it is functional, cell-based. The following applies: MCF7, 48 h.
The test system of data set [5] is HCT-116. Briefly: Antiproliferative activity against human HCT-116 cells assessed as inhibition of cell growth incubated for 48 hrs by MTT assay. It counts as functional, cell-based. The following applies: HCT-116, 48 h.
Data set [6] has as its system PC-3. Briefly: Antiproliferative activity against human PC-3 cells assessed as inhibition of cell growth incubated for 48 hrs by MTT assay. It counts as functional, cell-based. The following applies: PC-3, 48 h.
Data set [7] in a line: Cytotoxicity against human L02 cells assessed as inhibition of cell growth incubated for 48 hrs by MTT assay. It counts as toxicity, cell-based.
Data set [8] can be described thus: Cytotoxicity against HUVEC assessed as inhibition of cell growth incubated for 48 hrs by MTT assay. It counts as toxicity, cell-based. The following applies: human.
The nature of data set [9]: Toxicity in mouse assessed as death at 10 to 20 mg/kg, ip administered for 7 days and measured every 2 days. The following applies: in vivo, 168 h, dose 10-20 mg/kg, time 7 day. It counts as organism-based.
Data set [10] in a line: Toxicity in mouse assessed as clinical signs at 10 to 20 mg/kg, ip administered for 7 days and measured every 2 days. It counts as organism-based. The following applies: in vivo, 168 h, dose 10-20 mg/kg, time 7 day.
The nature of data set [11]: Toxicity in mouse assessed as effect on body weight at 20 mg/kg, ip administered for 7 days and measured every 2 days. In kind it is organism-based. The conditions noted are these: in vivo, 168 h, time 7 day.
Data set [12] relates to A549. As to the kind of experiment: Antiproliferative activity against human A549 cells assessed as inhibition of cell growth preincubated with FCCP for 1 hrs followed by compound addition and measured after 48 hrs by MTT assay. In kind it is functional, cell-based.
In data set [13] the test system is A549. Briefly: Induction of mitochondrial membrane depolarization in human A549 cells assessed as loss of red fluorescence at 2 to 8 uM incubated for 4 hrs by TMRM staining based fluorescence assay. In kind it is functional, cell-based. The following applies: dose 2-8 µM.
The subject of data set [14] is A549. Briefly: Induction of mitochondrial membrane depolarization in human A549 cells assessed as increase in green fluorescence by measuring JC-1 monomer at 2 to 8 uM incubated for 4 hrs by JC-1 dye based assay. It counts as functional, cell-based. The conditions noted are these: dose 2-8 µM.
In data set [15] the test system is A549. Briefly: Induction of mitochondrial membrane depolarization in human A549 cells assessed as increase in JC-1 monomer ratio at 2 to 8 uM incubated for 24 hrs by JC-1 staining based flow cytometric analysis. It counts as functional, cell-based. The following applies: dose 2-8 µM. In general terms: A flow cytometer gives signals particle by particle.
Data set [16] concerns A549. As to the kind of experiment: Induction of apoptosis in human A549 cells at 4 uM by Annexin V-FITC/PI staining based flow cytometric analysis. In kind it is functional, cell-based. The following applies: time 12-48 hrs, TDE = time-dependent effect.
In data set [17] the test system is A549. Briefly: Induction of apoptosis in human A549 cells assessed as total apoptotic cells at 1 uM incubated for 48 hrs by Annexin V-FITC/PI staining based flow cytometric analysis relative to control. It counts as functional.
The subject of data set [18] is A549. Briefly: Induction of apoptosis in human A549 cells assessed as total apoptotic cells at 2 uM incubated for 48 hrs by Annexin V-FITC/PI staining based flow cytometric analysis relative to control. In kind it is functional.
Data set [19] deals with A549. Briefly: Induction of apoptosis in human A549 cells assessed as total apoptotic cells at 4 uM incubated for 48 hrs by Annexin V-FITC/PI staining based flow cytometric analysis relative to control. In kind it is functional.
In data set [20] the test system is A549. As to the kind of experiment: Induction of cell cycle arrest in human A549 cells assessed as G1 phase cells at 1 uM incubated for 24 hrs by flow cytometric analysis (reference value: 60.75 %). In kind it is functional.
Data set [21] deals with A549. As to the kind of experiment: Induction of cell cycle arrest in human A549 cells assessed as S phase cells at 1 uM incubated for 24 hrs by flow cytometric analysis (reference value: 23.49 %). In kind it is functional.
Data set [22] has as its system A549. As to the kind of experiment: Induction of cell cycle arrest in human A549 cells assessed as G2 phase cells at 1 uM incubated for 24 hrs by flow cytometric analysis (reference value: 15.75 %). It counts as functional.
Data set [23] concerns A549. As to the kind of experiment: Induction of cell cycle arrest in human A549 cells assessed as G1 phase cells at 2 uM incubated for 24 hrs by flow cytometric analysis (reference value: 60.75 %). In kind it is functional.
Data set [24] concerns A549. Briefly: Induction of cell cycle arrest in human A549 cells assessed as S phase cells at 2 uM incubated for 24 hrs by flow cytometric analysis (reference value: 23.49 %). In kind it is functional.
For data set [25], the system named is A549. As to the kind of experiment: Induction of cell cycle arrest in human A549 cells assessed as G2 phase cells at 2 uM incubated for 24 hrs by flow cytometric analysis (reference value: 15.75 %). It counts as functional.
The subject of data set [26] is A549. As to the kind of experiment: Induction of cell cycle arrest in human A549 cells assessed as G1 phase cells at 4 uM incubated for 24 hrs by flow cytometric analysis (reference value: 60.75 %). It counts as functional.
For data set [27], the system named is A549. Briefly: Induction of cell cycle arrest in human A549 cells assessed as S phase cells at 4 uM incubated for 24 hrs by flow cytometric analysis (reference value: 23.49 %). In kind it is functional.
The subject of data set [28] is A549. Briefly: Induction of cell cycle arrest in human A549 cells assessed as G2 phase cells at 4 uM incubated for 24 hrs by flow cytometric analysis (reference value: 15.75 %). In kind it is functional.
Data set [29] concerns A549. Briefly: Inhibition of cell migration in human A549 cells at 2 uM incubated for 48 hrs by wound healing assay. In kind it is functional, cell-based.
Data set [30] relates to A549. As to the kind of experiment: Inhibition of cell invasion in human A549 cells at 2 to 4 uM incubated for 24 hrs by transwell invasion assay. It counts as functional, cell-based. The following applies: dose 2-4 µM.
The nature of data set [31]: Toxicity in mouse assessed as effect on lung pathology at 10 to 20 mg/kg, ip administered for 7 days and measured every 2 days. The following applies: in vivo, 168 h, dose 10-20 mg/kg, time 7 day. In kind it is organism-based.
A short description of data set [32]: Toxicity in mouse assessed as effect on heart pathology at 10 to 20 mg/kg, ip administered for 7 days and measured every 2 days. It counts as organism-based. The conditions noted are these: in vivo, 168 h, dose 10-20 mg/kg, time 7 day.
Data set [33] can be described thus: Toxicity in mouse assessed as effect on liver pathology at 10 to 20 mg/kg, ip administered for 7 days and measured every 2 days. It counts as organism-based. The conditions noted are these: in vivo, 168 h, dose 10-20 mg/kg, time 7 day.
A short description of data set [34]: Toxicity in mouse assessed as effect on spleen pathology at 10 to 20 mg/kg, ip administered for 7 days and measured every 2 days. It counts as organism-based. The following applies: in vivo, 168 h, dose 10-20 mg/kg, time 7 day.
Data set [35] can be described thus: Toxicity in mouse assessed as effect on kidney pathology at 10 to 20 mg/kg, ip administered for 7 days and measured every 2 days. It counts as organism-based. The conditions noted are these: in vivo, 168 h, dose 10-20 mg/kg, time 7 day.

Take `CO[C@@]12[C@H](COC(N)=O)C3=C(C(=O)C(C)=C(N)C3=O)N1C[C@H]1[C@@H]2N1CCCCCCCCCC[P+](c1ccccc1)(c1ccccc1)c1ccccc1` (some centres undefined): the concentration for half-maximal inhibition (IC50) (in general, the concentration that gives 50% inhibition) in data set [1] was 1960 nM; in data set [2] it was 2820 nM; in data set [3], 1950 nM; in data set [4] it was 3170 nM; in data set [5], 1960 nM; in data set [6], 4710 nM. Moreover, the values for the IC50 at 48 h in data set [7] and in data set [8] were above 5000 nM and 10000 nM, respectively.
As for `CO[C@@]12[C@H](COC(N)=O)C3=C(C(=O)C(C)=C(N)C3=O)N1C[C@H]1[C@@H]2N1C(=O)CCCCCCC[P+](c1ccccc1)(c1ccccc1)c1ccccc1`, the IC50 in data set [1] was found to be 1860 nM; in data set [2], 1310 nM; in data set [3], 7640 nM; in [4], 6590 nM; in data set [5] it was 1230 nM; in data set [6], 11900 nM. The IC50 at 48 h in data set [7] and in data set [8] was above 20000 nM throughout.
As to `CO[C@@]12[C@H](COC(N)=O)C3=C(C(=O)C(C)=C(N)C3=O)N1C[C@H]1[C@@H]2N1C(=O)CCCCCCCCC[P+](c1ccccc1)(c1ccccc1)c1ccccc1.[Br-]`, the IC50 in data set [1] was found to be 1460 nM; in data set [2] it was 1090 nM; in data set [3] it was 3110 nM; in [4] it was 5450 nM; in [5], 1220 nM; in data set [6], 6050 nM. In addition, in [12], the 50% inhibitory concentration (IC50) was found to be 11300 nM. The IC50 at 48 h in data set [7] and in data set [8] was above 20000 nM each time. Besides, the Activity result in data set [9] is “Non-Toxic”; in [10] it was “Non-Toxic”; in [11], “Non-Toxic”; in data set [16] it was “Tde”; in data set [17] it was 18%; in data set [18], 20.2%. The Activity came to 24.9% in [19]; 14.87% in data set [20]; 50.92% in data set [21]; 34.21% in data set [22]; 5.79% in [23]; 49.53% in data set [24]. For the same molecule, the Activity is reported as 44.68% in data set [25]; 0.72% in data set [26]; 84.94% in [27]; 14.35% in [28]; “Non-Toxic” in data set [31]; “Non-Toxic” in [32]. The Activity entry in data set [33], in data set [34] and in data set [35] was “Non-Toxic” each time. The result in [13], in [14] and in data set [15] was Active. Further, the inhibition result in [29] and in data set [30] was “Active” throughout.
Turning to `CO[C@@]12[C@H](COC(N)=O)C3=C(C(=O)C(C)=C(N)C3=O)N1C[C@H]1[C@@H]2N1C(=O)CCCCCCCCCCC[P+](c1ccccc1)(c1ccccc1)c1ccccc1`, the IC50 in data set [1] was 640 nM; in data set [2] it was 670 nM; in [3] it was 2630 nM; in data set [4], 4560 nM; in data set [5], 750 nM; in [6], 970 nM. The IC50 at 48 h in [7] was above 2500 nM; in [8], above 5000 nM.
